Columns and labels:
BhorOBPm2 [1] = target: T1, BhorOBPm2 (Batocera horsfieldi, UniProt D4P5A8); assay: 1-NPN fluorescence competition binding; details: pH 7.4, 30 mM Tris-HCl, room temperature, 2 μM protein, 2 μM 1-NPN
T1 construct: antennal cDNA, ORF 435 bp, 145 residues printed incl; 21-residue signal peptide; reverse primer encodes ETFIFF-stop

BhorOBPm2 [2] = target: T1, BhorOBPm2; assay: direct 1-NPN fluorescence titration, Scatchard plot; format: binding; details: 30 mM Tris-HCl, room temperature, 2 μM protein, 0-28 μM 1-NPN; fluorescent probe
CquiOBP1 = details: cited from earlier work
BhorOBPm2 [3] = assay: Fluorescence competition-binding assay with 1-NPN probe, wild-type BhorOBPm2; design: species or system Batocera horsfieldi; details: BhorOBPm2, discussion
Experimental: Fluorescence competition-binding assays were performed to determine the binding affinity of the BhorOBPm2 protein for various ligands using 1-NPN as a fluorescent probe. […] The fluorescence of 1-NPN was excited at 337 nm, and emission was recorded at between 350 nm and 600 nm using a RF-5301PC fluorescence spectrophotometer (Shimadzu, Kyoto, Japan), a 1-cm light path, and a quartz cuvette. The competitive binding of ligands was measured using 1-NPN (2 μM) as the fluorescent probe with a stoichiometry of 1:1 (protein:ligand), with the final concentration of each ligand added to the sample ranging from 0 μM to 20 μM. […] The binding data were obtained from three independent measurements. […] Binding affinities (Ki) of the OBPs for each ligand were determined based on the IC50 value (the initial fluorescence level of the competitor concentration reduced by half) using the equation: Ki = [IC50]/(1 + [1-NPN]/K1-NPN), where [1-NPN] is the free concentration of 1-NPN, and K1-NPN is the dissociation constant of the complex BhorOBPm2/1-NPN.

BhorOBPm2 [4] = target: T1, BhorOBPm2; assay: 1-NPN fluorescence competition binding; details: pH 7.4, 30 mM Tris-HCl, room temperature, 2 μM protein, 2 μM 1-NPN; reciprocal Ki, not Ki itself

T1 sequence (D4P5A8 entry or part of it): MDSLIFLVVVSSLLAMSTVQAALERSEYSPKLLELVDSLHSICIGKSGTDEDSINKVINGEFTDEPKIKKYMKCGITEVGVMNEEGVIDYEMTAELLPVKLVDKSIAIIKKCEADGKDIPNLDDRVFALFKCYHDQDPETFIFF

| Molecule | 1/Ki*1000 (BhorOBPm2 [1]) | other results |
| --- | --- | --- |
| CCCCCCCCCCCC(C)=O [2-tridecanone] | 353.05 1/Ki(uM)*1000 |  |
| c1ccc(Nc2cccc3ccccc23)cc1 [N-phenyl-1-naphthylamine] |  | Kd (BhorOBPm2 [2]): The dissociation constants (Kd) of the OBPs for 1-NPN were calculated from Scatchard plots |
| CCCCCCCC=O [Octanal, octanal] |  | binding affinity (in words) (CquiOBP1): high binding affinities |
| CCCCCCCCCC=O [decanal] | 102.21 1/Ki(uM)*1000 | binding affinity (in words) (CquiOBP1): high binding affinities |
| CCCCCCCCCCCCCCCCCCCCCCCCCCC [heptacosane] | 45.56 1/Ki(uM)*1000 | binding affinity (in words) (BhorOBPm2 [3]): low binding affinities |
| CCCCCCCCC=O [nonanal] | 50.40 1/Ki(uM)*1000 | binding affinity (in words) (CquiOBP1): high binding affinities |
| CCCCCCCC=O [octanal] | 54.09 1/Ki(uM)*1000 |  |
| CCCCCCCCCCCCCCCCCCCCCCCCC [pentacosane] | 1.89 1/Ki(uM)*1000 | binding affinity (in words) (BhorOBPm2 [3]): low binding affinities |
| CCCCCCCCCCCCCC [tetradecane] | 94.91 1/Ki(uM)*1000 |  |
| CCCCCCCCCCCCC [tridecane] | 262.09 1/Ki(uM)*1000 |  |
| Farnesene |  | 1/Ki(μM) × 1000 (BhorOBPm2 [4]): 1159.11 1000/μM (reciprocal of Ki in μM, times 1000) |
| farnesene |  | binding affinity (in words) (BhorOBPm2 [3]): highest binding affinity |

Source: PMC5034290, “Predicted structure of a Minus-C OBP from Batocera horsfieldi (Hope) suggests an intermediate structure in evolution of OBPs” (Scientific Reports, 2016)
